The record followed here is US11440884B2, “Compounds, salts thereof and methods for treatment of diseases” (ACADIA PHARMACEUTICALS INC., priority 2017, dated 2022).

SMILES strings stand for the structures. pKi: −log10 of the molar value.

For orientation: pKi means the negative decadic logarithm of the Ki, by convention in mol/L. A low value points to a high Ki.

5-HT2A receptor, sequence (P28223 whole entry): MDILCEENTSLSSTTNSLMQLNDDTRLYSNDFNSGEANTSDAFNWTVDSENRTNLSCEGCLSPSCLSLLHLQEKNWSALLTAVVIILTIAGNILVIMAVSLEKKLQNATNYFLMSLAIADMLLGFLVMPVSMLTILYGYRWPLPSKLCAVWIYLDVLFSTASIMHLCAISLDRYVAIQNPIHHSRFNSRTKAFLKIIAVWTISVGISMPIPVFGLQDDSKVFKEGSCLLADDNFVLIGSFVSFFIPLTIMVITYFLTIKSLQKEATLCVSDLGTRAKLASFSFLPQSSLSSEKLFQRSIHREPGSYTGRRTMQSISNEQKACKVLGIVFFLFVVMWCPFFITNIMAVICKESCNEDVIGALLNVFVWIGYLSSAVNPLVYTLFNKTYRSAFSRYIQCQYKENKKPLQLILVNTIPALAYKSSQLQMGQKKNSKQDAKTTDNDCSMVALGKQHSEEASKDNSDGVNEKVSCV

One test addresses 5-HT2A receptor (Homo sapiens (Human), UniProt P28223). The test can be described thus: Receptor Selection and Amplification (R-SAT) functional antagonist assay.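 Further: Read-out is β-galactosidase marker gene activity with ONPG substrate, measured after five days of growth in 96-well plates holding the test compound.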
Details: not given
As to `COc1cc(F)c(CN(C(=O)Cc2ccc(OCC(C)C)cc2)C2CCN(C)CC2)c(F)c1.O=C(O)C(F)(F)F` [Compound 33, N-[(2,6-difluoro-4-methoxyphenyl)methyl]-N-(1-methylpiperidin-4-yl)-2-[4-(2-methylpropoxy)phenyl]acetamide; trifluoroacetic acid], the “5-HT2a pKi” value came to 7.5.
Consider `CC(C)Oc1ccc(CC(=O)N(Cc2ccc(F)c(F)c2F)C2CCN(C)CC2)cc1.O=C(O)C(F)(F)F` [Compound 34, N-(1-methylpiperidin-4-yl)-2-[4-(propan-2-yloxy)phenyl]-N-[(2,3,4-trifluorophenyl)methyl]acetamide; trifluoroacetic acid], for which the “5-HT2a pKi” value was 7.4.
Turning to `CC(=O)O.COc1cc(F)c(CN(C(=O)OCc2ccc(OCC(C)C)cc2)C2CCN(C)CC2)c(F)c1` [Compound 36, [4-(2-methylpropoxy)phenyl]methyl N-[(2,6-difluoro-4-methoxyphenyl)methyl]-N-(1-methylpiperidin-4-yl)carbamate; acetic acid], the “5-HT2a pKi” value was found to be 9.0.
`COc1ccc(CN(C(=O)OCc2ccc(OC(C)C)cc2)C2CCN(C)CC2)c(F)c1` [Compound 41, [4-(propan-2-yloxy)phenyl]methyl N-[(2-fluoro-4-methoxyphenyl)-methyl]-N-(1-methylpiperidin-4-yl)carbamate] had a pKi of 8.60.
The same measure, in the same setting: under `CC(C)COc1ccc(CC(=O)N(Cc2ccc(Cl)cc2C(F)(F)F)C2CCN(C)CC2)cc1` [Compound 50, N-{[4-chloro-2-(trifluoromethyl)phenyl]methyl}-N-(1-methylpiperidin-4-yl)-2-[4-(2-methylpropoxy)phenyl]acetamide; trifluoroacetic acid] stands 3.70.
Consider `Cc1cc(F)ccc1CN(C(=O)OCc1ccc(OC(C)C)cc1)C1CCN(C)CC1.O=C(O)C(F)(F)F` [Compound 56, [4-(propan-2-yloxy)phenyl]methyl N-[(4-fluoro-2-methylphenyl)-methyl]-N-(1-methylpiperidin-4-yl)carbamate; trifluoroacetic acid], for which the “5-HT2a pKi” value worked out at 7.8.
As to `COc1ccc(CN(C(=O)OCc2ccc(OC(C)C)cc2)C2CCN(C)CC2)c(Cl)c1.O=C(O)C(F)(F)F` [Compound 57, [4-(propan-2-yloxy)phenyl]methyl N-[(2-chloro-4-methoxy-phenyl)methyl]-N-(1-methylpiperidin-4-yl)carbamate; trifluoroacetic acid], the “5-HT2a pKi” value came out at 7.8.

The same test, now with this note: R-SAT, transfected NIH3T3 cells; guidance: high affinity pKi≥8.4, moderate affinity pKi≥7.7.
Regarding `CC(C)COc1ccc(COC(=O)N(Cc2ccc(F)c(F)c2F)C2CCN(C)CC2)cc1` [Compound 37, [4-(2-methylpropoxy)phenyl]methyl N-(1-methylpiperidin-4-yl)-N-[(2,3,4-trifluorophenyl)methyl]carbamate], the “5-HT2a pKi” value is recorded as 8.9.
For `CC(C)Oc1ccc(COC(=O)N(Cc2ccc(Cl)cc2F)C2CCN(C)CC2)cc1` [Compound 38, [4-(propan-2-yloxy)phenyl]methyl N-[(4-chloro-2-fluorophenyl)-methyl]-N-(1-methylpiperidin-4-yl)carbamate], the “5-HT2a pKi” value worked out at 9.3.
For `CN1CCC(N(Cc2ccc(F)cc2F)C(=O)OCc2ccc(OCCF)cc2)CC1` [Compound 39, [4-(2-fluoroethoxy)phenyl]methyl N-[(2,4-difluorophenyl)methyl]-N-(1-methylpiperidin-4-yl)carbamate], the “5-HT2a pKi” value was 9.8.
On the same count and under the same terms, with `CCCCOc1ccc(COC(=O)N(Cc2ccc(F)cc2F)C2CCN(C)CC2)cc1` [Compound 40, (4-butoxyphenyl)methyl N-[(2,4-difluorophenyl)methyl]-N-(1-methylpiperidin-4-yl)carbamate] the figure was 8.9; with `COC(=O)C(C)(C)CN1CCC(N(Cc2ccc(F)cc2F)C(=O)OCc2ccc(OC(C)C)cc2)CC1` [Compound 42, methyl 3-(4-{[(2,4-difluorophenyl)methyl]({[4-(propan-2-yloxy)phenyl]methoxy}carbonyl)amino}piperidin-1-yl)-2,2-dimethylpropanoate], 8.0.
On to `CC(C)Oc1ccc(COC(=O)N(Cc2ccc(F)cc2F)C2CCN(CC(C)(C)C(=O)O)CC2)cc1` [Compound 43, 3-(4-{[(2,4-difluorophenyl)methyl]({[4-(propan-2-yloxy)phenyl]-methoxy}carbonyl)amino}piperidin-1-yl)-2,2-dimethylpropanoic acid], for which the “5-HT2a pKi” value stood at 8.5.
For the compound `CCN1CCC(N(Cc2ccc(F)cc2F)C(=O)OCc2ccc(OC(C)C)cc2)CC1` [Compound 44, [4-(propan-2-yloxy)phenyl]methyl N-[(2,4-difluorophenyl)methyl]-N-(1-ethylpiperidin-4-yl)carbamate], the “5-HT2a pKi” value amounted to 9.4.
For `CC(C)Oc1ccc(COC(=O)N(Cc2ccc(F)cc2F)C2CCN(C3CC3)CC2)cc1` [Compound 45, [4-(propan-2-yloxy)phenyl]methyl N-(1-cyclopropylpiperidin-4-yl)-N-[(2,4-difluorophenyl)methyl]carbamate], the “5-HT2a pKi” value is 8.6.
For the compound `CC(C)Oc1ccc(COC(=O)N(Cc2ccc(F)cc2F)C2CCN(C3COC3)CC2)cc1` [Compound 46, [4-(propan-2-yloxy)phenyl]methyl N-[(2,4-difluorophenyl)methyl]-N-[1-(oxetan-3-yl)piperidin-4-yl]carbamate], the “5-HT2a pKi” value was found to be 7.6.
`COc1ccc(CN(C(=O)Cc2ccc(OCC(C)C)cc2)C2CCN(C)CC2)c(F)c1` [Compound 47, N-[(2-fluoro-4-methoxyphenyl)methyl]-N-(1-methylpiperidin-4-yl)-2-[4-(2-methylpropoxy)phenyl]acetamide]: the “5-HT2a pKi” value worked out at 8.1.
Take `CC(C)Oc1ccc(/C=C/C(=O)N(Cc2ccc(F)cc2F)C2CCN(C)CC2)cc1` [Compound 48, (2E)-N-[(2,4-difluorophenyl)methyl]-N-(1-methylpiperidin-4-yl)-3-[4-(propan-2-yloxy)phenyl]prop-2-enamide]: the “5-HT2a pKi” value is reported as 7.4.
Consider `CC(C)COc1ccc(CC(=O)N(Cc2ccc(F)cc2OC(F)(F)F)C2CCN(C)CC2)cc1.O=C(O)C(F)(F)F` [Compound 51, N-{[4-fluoro-2-(trifluoromethoxy)phenyl]methyl}-N-(1-methyl-piperidin-4-yl)-2-[4-(2-methylpropoxy)phenyl]acetamide; trifluoroacetic acid], for which the “5-HT2a pKi” value stood at 6.7.
Take `Cc1cc(F)ccc1CN(C(=O)Cc1ccc(OCC(C)C)cc1)C1CCN(C)CC1.O=C(O)C(F)(F)F` [Compound 52, N-[(4-fluoro-2-methylphenyl)methyl]-N-(1-methylpiperidin-4-yl)-2-[4-(2-methylpropoxy)phenyl]acetamide; trifluoroacetic acid]: the “5-HT2a pKi” value is 6.7.
In the case of `COc1ccc(CN(C(=O)Cc2ccc(OCC(C)C)cc2)C2CCN(C)CC2)c(Cl)c1.O=C(O)C(F)(F)F` [Compound 53, N-[(2-chloro-4-methoxyphenyl)methyl]-N-(1-methylpiperidin-4-yl)-2-[4-(2-methylpropoxy)phenyl]acetamide; trifluoroacetic acid], the “5-HT2a pKi” value amounted to 6.9.
In the case of `CC(C)COc1ccc(COC(=O)N(Cc2ccc(F)cc2Cl)C2CCN(C)CC2)cc1` [Compound 58, [4-(2-methylpropoxy)phenyl]methyl N-[(2-chloro-4-fluorophenyl)methyl]-N-(1-methylpiperidin-4-yl)carbamate], the “5-HT2a pKi” value worked out at 8.1.
On to `CC(C)COc1ccc(CC(=O)N(Cc2ccc(Cl)cc2Cl)C2CCN(C)CC2)cc1.O=C(O)C(F)(F)F` [Compound 59, N-[(2,4-dichlorophenyl)methyl]-N-(1-methylpiperidin-4-yl)-2-[4-(2-methylpropoxy)phenyl]acetamide; trifluoroacetic acid], for which the “5-HT2a pKi” value is 6.6.
In the case of `CC(C)Oc1ccc(CC(=O)N(Cc2ccc(Cl)cc2Cl)C2CCN(C)CC2)cc1.O=C(O)C(F)(F)F` [Compound 60, N-[(2,4-dichlorophenyl)methyl]-N-(1-methylpiperidin-4-yl)-2-[4-(propan-2-yloxy)phenyl]acetamide; trifluoroacetic acid], the “5-HT2a pKi” value came out at 6.5.
Take `CC(C)COc1ccc(CC(=O)N(Cc2ccc(F)cc2Cl)C2CCN(C)CC2)cc1.O=C(O)C(F)(F)F` [Compound 61, N-[(2-chloro-4-fluorophenyl)methyl]-N-(1-methylpiperidin-4-yl)-2-[4-(2-methylpropoxy)phenyl]acetamide; trifluoroacetic acid]: the “5-HT2a pKi” value is reported as 6.7.
In the case of `CC(C)Oc1ccc(CC(=O)N(Cc2ccc(F)cc2Cl)C2CCN(C)CC2)cc1.O=C(O)C(F)(F)F` [Compound 62, N-[(2-chloro-4-fluorophenyl)methyl]-N-(1-methylpiperidin-4-yl)-2-[4-(propan-2-yloxy)phenyl]acetamide; trifluoroacetic acid], the “5-HT2a pKi” value was determined as 6.5.
Turning to `CC(C)Oc1ccc(COC(=O)N(Cc2ccc(F)cc2Cl)C2CCN(C)CC2)cc1` [Compound 63, [4-(propan-2-yloxy)phenyl]methyl N-[(2-chloro-4-fluorophenyl)-methyl]-N-(1-methylpiperidin-4-yl)carbamate], the “5-HT2a pKi” value is given as 8.4.
For the compound `CC(C)COc1ccc(COC(=O)N(Cc2ccc(Cl)cc2Cl)C2CCN(C)CC2)cc1` [Compound 64, [4-(2-methylpropoxy)phenyl]methyl N-[(2,4=dichlorophenyl)methyl]-N-(1-methylpiperidin-4-yl)carbamate], the “5-HT2a pKi” value stood at 8.0.
Take `Cc1ccc(F)c(CN(C(=O)OCc2ccc(OC(C)C)cc2)C2CCN(C)CC2)c1F` [Compound 65, [4-(propan-2-yloxy)phenyl]methyl N-[(2,6-difluoro-3-methylphenyl)methyl]-N-(1-methylpiperidin-4-yl)carbamate]: the “5-HT2a pKi” value is recorded as 7.7.
For `CC(C)Oc1ccc(COC(=O)N(Cc2c(F)ccc(F)c2F)C2CCN(C)CC2)cc1` [Compound 66, [4-(propan-2-yloxy)phenyl]methyl N-(1-methylpiperidin-4-yl)-N-[(2,3,6-trifluorophenyl)methyl]carbamate], the “5-HT2a pKi” value is given as 8.4.
For the compound `Cc1c(F)ccc(CN(C(=O)OCc2ccc(OC(C)C)cc2)C2CCN(C)CC2)c1F` [Compound 67, [4-(propan-2-yloxy)phenyl]methyl N-[(2,4-difluoro-3-methylphenyl)methyl]-N-(1-methylpiperidin-4-yl)carbamate], the “5-HT2a pKi” value amounted to 10.0.
